According to US20150290232A1, “DRUG COMPOSITION FOR TREATING TUMORS AND APPLICATION THEREOF” (priority 2012, published 2015):
Like-named read-outs stand apart in the source and are kept apart here.

Tests used:
[1] = system: A549 transplanted tumor (human non-small cell lung cancer cell line); test: Example 5: Acla A on A549 transplanted tumor in nude mice; type: in vivo, BALB/c-nu nude mice; conditions: A549, Jef 50 mg/kg/time intragastric, 2 times a day, 14 days, Day 20
Description: Under sterile conditions, the above tumor cells were collected in the logarithmic growth phase. A549 was injected by subcutaneous injection in an amount of 6×10 6/0.2 mL/nude mice (cell viability>90%) into the right subaxillary of the nude mice, thus establishing transplated tumor models of lung cancer in nude mice. The mice were administered from the second day after the inoculation. The experimental group was intragastrically administered at the experimentally designed amount, the negative control group was intragastrically administered with sterile water, and the positive control group is intragastrically administered with Jef. Each mouse was intragastrically administered in 0.4 ml each time and 2 times a day, at 8:00, and 14:00. The administrations were successive for 14 days. The day before administration was deemed as Day 0 and the body weight and tumor size of the mice were determined every 5 days to produce a dynamic plot on body weight and tumor growth. On Day 20, the mice were sacrificed and the tumors were taken out and weighed. The tumor inhibition rate (%) was calculated after the effect of the medicament based on a tumor inhibition rate of the control group being zero.
(§1) The values determined were presented as mean±standard error (Mean±SD). The experimental data for each group was analyzed with One-way ANOVA method in the SPSS 18.0 statistical software, and p<0.05 means that the differences are statistically significant.

[2] = system: A549 transplanted tumor (human non-small cell lung cancer cell line); test: Example 6: TTD and Acla A combined on A549 transplanted tumor in nude mice; type: in vivo, BALB/c-nu nude mice; conditions: A549, Jef 50 mg/kg/time intragastric, 3 times a day, 10 days, Day 29
Description: (§2) Under sterile conditions, the above tumor cells were collected in the logarithmic growth phase. A549 was injected by subcutaneous injection in an amount of 1×10 7/0.2 mL/nude mice (cell viability>90%) into the right subaxillary of the nude mice, whereas HepG2 was injected by subcutaneous injection in an amount of 1×10 7/0 2 mL/nude mice (cell viability>90%) into the left subaxillary of the nude mice, thus establishing transplated tumor models of lung cancer and liver cancer respectively in nude mice. The mice were administered from the second day after the inoculation. […] Each mouse was intragastrically administered in 0.4 ml each time and 3 times a day, at 8:00, 14:00 and 20:00. The administrations were successive for 10 days. The day before administration was deemed as Day 0 and the body weight and tumor size of the mice were determined every 5 days to produce a dynamic plot on body weight and tumor growth. On Day 29, the mice were sacrificed and the tumors were taken out and weighed. The tumor inhibition rate (%) was calculated after the effect of the medicament based on a tumor inhibition rate of the control group being zero.
as §1

[3] = system: Hep G2 transplanted tumor (human hepatoma carcinoma cell); test: Example 6: TTD and Acla A combined on Hep G2 transplanted tumor in nude mice; type: in vivo, BALB/c-nu nude mice; conditions: Hep G2, Jef 50 mg/kg/time intragastric, 3 times a day, 10 days, Day 29
Description: as §2, §1

[4] = system: human leukemia Jurkat cells; conditions: cited from earlier work
[5] = system: peripheral blood leucocyte of a normal human being; conditions: berbamine 0.5 μg/mL to 10 μg/mL; cited from earlier work

SMILES	Mass of tumor ([1]; Mean ± SD)	tumor inhibition rate ([1]; control = 0)	Mass of tumor ([2]; Mean ± SD)	tumor inhibition rate ([2]; control = 0)	Mass of tumor ([3]; Mean ± SD)	tumor inhibition rate ([3]; control = 0, * P < 0.05)	cell viability ([4]; berbamine 0.5 μg/mL)	cell viability ([4]; berbamine 10 μg/mL)	cytotoxic effect (in words) [5]
COc1cc2ncnc(Nc3ccc(F)c(Cl)c3)c2cc1OCCCN1CCOCC1 [Jef, Jefitinib]	0.38 ± 0.37 g	−14.34%	1.52 ± 1.00 g	−34.11%	0.31 ± 0.10 g	54.08* %			
COc1cc2c3cc1Oc1c(OC)c(OC)cc4c1[C@@H](Cc1ccc(O)c(c1)Oc1ccc(cc1)C[C@@H]3N(C)CC2)N(C)CC4 [berbamine, 6,6′,7-trimethoxy-2,2′-dimethylberbaman-12-ol]							93.69%	14.85%	no evident cytotoxic effect
